Test results: patent US11447502B2, “Antibacterial agents: dual-targeted RNA polymerase inhibitors” (priority 2018, dated 2022)
In brackets after ≈: the same amount, converted by molar mass.

Columns and labels:
M. tuberculosis H37Rv = assay: Microplate Alamar Blue MIC assay, M. tuberculosis H37Rv; assay type: cell-based; details: Mycobacterium tuberculosis, read-out: antibacterial activity M. tuberculosis H37Rv MIC
M. avium ATCC 25291 = assay: Microplate Alamar Blue MIC assay, M. avium; assay type: cell-based, Mycobacterium avium

Row | Structure (SMILES) | MIC (M. tuberculosis H37Rv) | antibacterial activity M. avium ATCC 25291 (M. avium ATCC 25291)
1 | [2H]C([2H])(c1ccccc1)C(NC(=O)c1ccccc1F)C(=O)Nc1cc(F)ccc1N1CCN(/N=C/C2=C3NC(=O)/C(C)=C\C=C\[C@H](C)[C@H](O)[C@@H](C)[C@@H](O)[C@@H](C)[C@H](OC(C)=O)[C@H](C)[C@@H](OC)/C=C/O[C@@]4(C)Oc5c(C)c(O)c(c(c5C4=O)C2=O)C3=O)CC1 (some centres unmarked) [IX-476a, Rifamycin S—(CHN)—IX-370a Conjugate] | 0.2 µg/mL (≈ 0.168 µM) | 
2 | CO[C@H]1/C=C/O[C@@]2(C)Oc3c(C)c(O)c4c(O)c(c(/C=N/N5CCN(c6ccc(F)cc6NC(=O)C(Cc6ccccc6)NC(=O)c6ccccc6F)CC5)c(O)c4c3C2=O)NC(=O)/C(C)=C\C=C\[C@H](C)[C@H](O)[C@@H](C)[C@@H](O)[C@@H](C)[C@H](OC(C)=O)[C@@H]1C (some centres unmarked) [IX-398, Rifamycin SV—(CHN)—IX-214 Conjugate] | 0.39 µg/mL (≈ 0.328 µM) | 0.098
3 | CO[C@H]1/C=C/O[C@@]2(C)Oc3c(C)c(O)c4c(O)c(c(/C=N/N5CCN(C)CC5)c(O)c4c3C2=O)NC(=O)/C(C)=C\C=C\[C@H](C)[C@H](O)[C@@H](C)[C@@H](O)[C@@H](C)[C@H](OC(C)=O)[C@@H]1C [rifampin, reference compound] | 0.049 µg/mL (≈ 0.0595 µM) | 0.024
4 | CO[C@H]1/C=C/O[C@@]2(C)Oc3c(C)c(O)c4c(O)c(c(/C=N/N5CCN(CCN6CCN(c7ccc(F)cc7NC(=O)C(Cc7ccccc7)NC(=O)c7ccccc7F)CC6)CC5)c(O)c4c3C2=O)NC(=O)/C(C)=C\C=C\[C@H](C)[C@H](O)[C@@H](C)[C@@H](O)[C@@H](C)[C@H](OC(C)=O)[C@@H]1C (some centres unmarked) [IX-403, Rifamycin SV—(CHN)—IX-402 Conjugate] | 3.13 µg/mL (≈ 2.41 µM) | 3.13
5 | [2H]C([2H])(c1ccccc1)C(NC(=O)c1ccccc1F)C(=O)Nc1cc(F)ccc1N1CCN(C(=O)COc2cc3c(O)c4c(O)c(C)c5c(c24)C(=O)[C@@](C)(O/C=C/[C@H](OC)[C@@H](C)[C@@H](OC(C)=O)[C@H](C)[C@H](O)[C@H](C)[C@@H](O)[C@@H](C)/C=C/C=C(/C)C(=O)N3)O5)CC1 (some centres unmarked) [IX-408a, Rifamycin B—IX-370a Conjugate] | 0.2 µg/mL (≈ 0.166 µM) | 0.78
6 | [2H]C([2H])(c1ccccc1)C(NC(=O)c1ccccc1F)C(=O)Nc1cc(F)ccc1N1CCN(/N=C/c2c3c(O)c4c(O)c(C)c5c(c4c2O)C(=O)[C@@](C)(O/C=C/[C@H](OC)[C@@H](C)[C@@H](OC(C)=O)[C@H](C)[C@H](O)[C@H](C)[C@@H](O)[C@@H](C)/C=C/C=C(/C)C(=O)N3)O5)CC1 (some centres unmarked) [IX-404a, Rifamycin SV—(CHN)—IX-370a Conjugate] | 0.049 µg/mL (≈ 0.0412 µM) | 0.048
